The values that follow come from US6013666A, “Oxirane carboxylic acid derivative and its manufacturing method” (Jew; Sang Sup, priority 1996, dated 2000).

In general, LD50 refers to the dose expected to kill half of the subjects tested.

One series concerns Mature rats. The experiment in a line: Acute toxicity test on rats, oral. The class given is in vivo. Conditions: rats. The method, then:
(§1) The acute toxicity tests on rats were performed using the compound prepared by the procedure of the Example 1. Mature rats weighing 200-250 g were orally given the compound of the Example 1 dissolved in ethylacetate in parallel with its gradually increasing concentration.

Series [1] can be described thus: Acute toxicity test on rats, oral. Format: in vivo. The following applies: rat, in vivo, rats 200-250 g, dissolved in ethylacetate, calculated by number of killed animals. The protocol:
as §1

Series [2] relates to male diabetes-induced Sprague-Dawley rats. The experiment in a line: Blood glucose lowering effects on streptozotocin diabetes-induced rats. The following applies: Rattus norvegicus; STZ diabetes-induced rats, 50 mg/kg oral; measured at 90, 120 and 180 mins, smallest values taken; read-out: Blood glucose lowering rate %. Format: in vivo. The method, then: Blood Glucose Lowering Effects of the Compounds Prepared by the Procedures of Example 1~6, 11~18
Two groups of male diabetes-induced Sprague-Dawley rats (each of 4-5 rats weighing about 250 g) were used for this experiment. 45 mg/kg of streptozotocin (STZ) dissolved in 0.1M citrate buffer (pH 4.5, 0-4° C.) was injected to the tail vein of fasted rats for 1 day. After elapse of 7 days, their blood glucose concentration were measured and animals having the blood serum concentration of more than 350 mg/dl were used as diabetes-induced rats for this experiment. The rats were intravenously administered at a daily dose of 1 ml/kg, while the normal control group received equal volume of 0.1M citrate buffer.
7 days after being treated with streptozotocin, diabetes-induced rats were orally administered at a dose of 50 mg/kg of the compounds prepared by the procedures of Examples 1-6, 11~18. Then, at time intervals of 90 mins, 120 mins and 180 mins, their blood glucose concentrations were measured and the smallest values were taken. The compounds of […] were dissolved in 30% ethanol until its final concentration became 2 ml/kg, while the control group was orally received equal volume of 30% ethanol.
Significant difference between two groups was determined by ANOVA test, together with a post hoc test using Newman-Keuls test.

The conditions of series [3]: phase II clinical trials; cited from earlier work.

As to `CCOC(=O)C1(CCCCCCOC(=O)c2ccc(Cl)cc2)CO1` (stereo not drawn) [Example 1, Ethyl-2-[6-(4-chlorophenylcarboxyl)hexyl]-oxirane-2-carboxylic acid], the “number of killed animals/number of animals per group” value was 0/10 in the series with Mature rats (dose 160 mg/kg); 1/10 with Mature rats (dose 300 mg/kg); 2/10 with Mature rats (dose 400 mg/kg); 5/10 with Mature rats (dose 500 mg/kg); 8/10 in the series with Mature rats (dose 600 mg/kg). Also, the LD50 in series [1] is 487 mg/kg. Besides, the inhibition in vivo at 50 mg/kg in series [2] came to 11.8%.
As to `CCOC(=O)C1(CCCCCCOC(=O)c2cnc(C)cn2)CO1` (stereo not drawn) [Example 2, Ethyl-2-[6-(5-methyl-2-pyrazincarboxyl)hexyl]-oxirane-2-carboxylic acid], the inhibition in vivo at 50 mg/kg in series [2] was 28.2%.
The same measure, in the same setting: to `CCOC(=O)C1(CCCCCCOC(=O)c2cncc(Br)c2)CO1` (stereo not drawn) [Example 3, Ethyl-2-[6-(5-bromo-3-pyridincarboxyl)hexyl]-oxirane-2-carboxylic acid] belongs 8.1%; to `CCOC(=O)C1(CCCCCCOC(=O)c2ccc(OC)nc2OC)CO1` (stereo not drawn) [Example 4, Ethyl-2-[6-(2,6-dimethoxy-5-pyridincarboxyl)hexyl]-oxirane-2-carboxylic acid], 21.6%; to `CCOC(=O)C1(CCCCCCOC(=O)c2cccs2)CO1` (stereo not drawn) [Example 5, Ethyl-2-[6-(2-thiophenecarboxyl)hexyl]-oxirane-2-carboxylic acid], 16.8%.
In the case of `CCOC(=O)C1(CCCCCCOC(=O)c2cnccn2)CO1` (stereo not drawn) [Example 6, Ethyl-2-[6-(2-pyrazincarboxyl)hexyl]-oxirane-2-carboxylic acid], the inhibition in vivo at 50 mg/kg in series [2] is 24.1%.
`CCOC(=O)C1(CCCCCCOCc2cccs2)CO1` (stereo not drawn) [Example 11, Ethyl-2-[6-(2-thiophenemethoxy)hexyl]oxirane-2-carboxylic acid]: the inhibition in vivo at 50 mg/kg in series [2] came out at 75.9%.
For the compound `CCOC(=O)C1(CCCCCCn2nc(C)cc2C)CO1` (stereo not drawn) [Example 12, Ethyl-2-[6-(3,5-dimethylpyrazole)hexyl]oxirane-2-carboxylic acid], the inhibition in vivo at 50 mg/kg in series [2] was determined as 47%.
The same measure, in the same setting: to `CCOC(=O)C1(CCCCCCOCc2ccc(OC)s2)CO1` (stereo not drawn) [Example 13, Ethyl-2-[6-(5-methoxy-2-thiophenemethoxy)hexyl]oxirane-2-carboxylic acid] belongs 5.9%; to `CCOC(=O)C1(CCCCCCOCc2ccc(C)s2)CO1` (stereo not drawn) [Example 14, Ethyl-2-[6-(5-methyl-2-thiophenemethoxy)hexyl]oxirane-2-carboxylic acid], 33.7%; to `CCOC(=O)C1(CCCCCCOCc2ccc(C)o2)CO1` (stereo not drawn) [Example 15, Ethyl-2-[6-(5-methyl-2-furanmethoxy)hexyl]oxirane-2-carboxylic acid], 6.8%.
On the same count and under the same terms, to `CCOC(=O)C1(CCCCCCOCCc2cccs2)CO1` (stereo not drawn) [Example 16, Ethyl-2-[6-(2-thiophenethoxy)hexyl]oxirane-2-carboxylic acid] belongs 5.6%; to `CCOC(=O)C1(CCCCCCOCc2ccc(Cl)s2)CO1` (stereo not drawn) [Example 17, Ethyl-2-[6-(5-chloro-2-thiophenemethoxy)hexyl]oxirane-2-carboxylic acid], 19.2%.
On to `CCOC(=O)C1(CCCCCCOCc2sccc2Cl)CO1` (stereo not drawn) [Example 18, Ethyl-2-[6-(3-chloro-2-thiophenemethoxy)hexyl]oxirane-2-carboxylic acid], for which the inhibition in vivo at 50 mg/kg in series [2] is 30.7%.
Take `CCOC(=O)[C@@]1(CCCCCCOc2ccc(Cl)cc2)CO1` [etomoxir]: in series [3], the “side effects associated with prolonged administration” value was “enlarged heart and toxicity in the liver”.
